Reference: PubChem BioAssay (NCI)
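Where inhibition never reached the appropriate level, the endpoint shown equals the highest concentration tested. Otherwise, values were interpolated linearly from a five-concentration, 48-hour dose response in 96-well plates. GI50: concentration for 50% inhibition of growth. At the TGI there is no net growth.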

Assays:
Assay in all cases: NCI anticancer screen, dose series, 48 h; in the data active = GI50 below about 0.43 µM; inactive = the rest
[1] = test system: 786-0 renal
[2] = test system: A498 renal
[3] = test system: A549 NSCLC
[4] = test system: ACHN renal
[5] = test system: BT-549 breast
[6] = test system: CAKI-1 renal
[7] = test system: CCRF-CEM leukemia
[8] = test system: COLO 205 colon
[9] = test system: DU-145 prostate
[10] = test system: EKVX NSCLC
[11] = test system: HCC-2998 colon
[12] = test system: HCT-116 colon
[13] = test system: HCT-15 colon
[14] = test system: HL-60(TB) leukemia
[15] = test system: HOP-62 NSCLC
[16] = test system: HOP-92 NSCLC
[17] = test system: HS 578T breast
[18] = test system: HT29 colon
[19] = test system: IGROV1 ovarian
[20] = test system: K-562 leukemia
[21] = test system: KM12 colon
[22] = test system: LOX IMVI melanoma
[23] = test system: MALME-3M melanoma
[24] = test system: MCF7 breast
[25] = test system: MDA-MB-231 breast
[26] = test system: MDA-MB-435
[27] = test system: MOLT-4 leukemia
[28] = test system: NCI-H226 lung
[29] = test system: NCI-H23 lung
[30] = test system: NCI-H460 lung
[31] = test system: NCI-H522 lung
[32] = test system: NCI/ADR-RES ovarian
[33] = test system: OVCAR-3 ovarian
[34] = test system: OVCAR-4 ovarian
[35] = test system: OVCAR-5 ovarian
[36] = test system: OVCAR-8 ovarian
[37] = test system: PC-3 prostate
[38] = test system: RPMI-8226 leukemia
[39] = test system: RXF 393 renal
[40] = test system: SF-268 CNS
[41] = test system: SF-295 CNS
[42] = test system: SF-539 CNS
[43] = test system: SK-MEL-2 melanoma
[44] = test system: SK-MEL-28 melanoma
[45] = test system: SK-MEL-5 melanoma
[46] = test system: SK-OV-3 ovarian
[47] = test system: SN12C renal
[48] = test system: SNB-19 CNS
[49] = test system: SNB-75 CNS
[50] = test system: SR leukemia
[51] = test system: SW-620 colon
[52] = test system: T-47D breast
[53] = test system: TK-10 renal
[54] = test system: U251 CNS
[55] = test system: UACC-257 melanoma
[56] = test system: UACC-62 melanoma
[57] = test system: UO-31 renal

CC(C)Cc1cc(-c2cccn2C)c(C#N)c(=O)[nH]1
> 100 µM: TGI [1] | TGI [2] | TGI [3] | TGI [4] | TGI [5] | TGI [6] | TGI [7] | TGI [8] | TGI [9] | TGI [10] | TGI [11] | TGI [12] | TGI [13] | TGI [14] | TGI [15] | TGI [16] | TGI [17] | TGI [18] | TGI [19] | TGI [20] | TGI [21] | TGI [22] | TGI [23] | TGI [24] | TGI [25] | TGI [26] | TGI [27] | TGI [28] | TGI [29] | TGI [30] | TGI [31] | TGI [32] | TGI [33] | TGI [34] | TGI [35] | TGI [36] | TGI [37] | TGI [38] | TGI [39] | TGI [40] | TGI [41] | TGI [42] | TGI [43] | TGI [44] | TGI [45] | TGI [46] | TGI [47] | TGI [48] | TGI [49] | TGI [50] | TGI [51] | TGI [52] | TGI [53] | TGI [54] | TGI [55] | TGI [56] | TGI [57]
inactive: GI50 [1] > 100 µM | GI50 [2] > 100 µM | GI50 [3] > 100 µM | GI50 [4] > 100 µM | GI50 [5] > 100 µM | GI50 [6] > 100 µM | GI50 [7] 23.4 µM | GI50 [8] > 100 µM | GI50 [9] > 100 µM | GI50 [10] > 100 µM | GI50 [11] > 100 µM | GI50 [12] > 100 µM | GI50 [13] > 100 µM | GI50 [14] 45.8 µM | GI50 [15] > 100 µM | GI50 [16] > 100 µM | GI50 [17] > 100 µM | GI50 [18] > 100 µM | GI50 [19] > 100 µM | GI50 [20] > 100 µM | GI50 [21] > 100 µM | GI50 [22] > 100 µM | GI50 [23] > 100 µM | GI50 [24] > 100 µM | GI50 [25] > 100 µM | GI50 [26] > 100 µM | GI50 [27] 22.5 µM | GI50 [28] > 100 µM | GI50 [29] > 100 µM | GI50 [30] > 100 µM | GI50 [31] > 100 µM | GI50 [32] > 100 µM | GI50 [33] > 100 µM | GI50 [34] 69.4 µM | GI50 [35] > 100 µM | GI50 [36] > 100 µM | GI50 [37] > 100 µM | GI50 [38] > 100 µM | GI50 [39] > 100 µM | GI50 [40] > 100 µM | GI50 [41] > 100 µM | GI50 [42] > 100 µM | GI50 [43] > 100 µM | GI50 [44] > 100 µM | GI50 [45] > 100 µM | GI50 [46] > 100 µM | GI50 [47] > 100 µM | GI50 [48] > 100 µM | GI50 [49] 40.1 µM | GI50 [50] 59.7 µM | GI50 [51] > 100 µM | GI50 [52] > 100 µM | GI50 [53] > 100 µM | GI50 [54] > 100 µM | GI50 [55] > 100 µM | GI50 [56] > 100 µM | GI50 [57] > 100 µM
